20 compounds from patent publication US20230141101A1, “PDE4 INHIBITOR COMPOUND AND MEDICAL USE THEREOF” (Suzhou Longbotai Pharmaceuticals Co., Ltd., priority 2020, published 2023) can be followed below.

Assay type in all cases: biochemical
One assay has as its target T1, PDE4A1A (Homo sapiens, UniProt P27815).
T1 construct: purchased BPS 60040
The assay can be described thus: PDE4 inhibitory activity assay (FAM-cAMP enzymatic reaction), PDE4A1A. The conditions noted are these: for inhibitory activity against PDE4A1A compared with Apremilast and WX011: compared with Apremilast and Example 11 of WO2018036470 (WX011). The method, then:
(§1) The compounds of the present disclosure were tested for their inhibitory activity (IC50 value) against PDE4A1A, PDE4B1, and PDE4D2.
(§2) Positive compound: Trequinsin (Sigma, Cat No. T20S7).
(§3) Instrument: Wallac Victor Muti-lable counter (Pekin Elmer) Steps of assay:
(§4) PDE enzymatic reaction; • 1) PDE was dissolved in 1× reaction solution to prepare 2× enzyme solution; • 2) FAM-cAMP was dissolved in 1× reaction solution to prepare 2× substrate solution; • 3) Corresponding volume of the compound in DMSO was transferred to the reaction plate through Echo 550; • 4) 2× enzyme solution was added into the corresponding wells of the reaction plate and incubated with the compound solution for 15 minutes at room temperature; • 5) 2× substrate solution was added into the corresponding well of the reaction plate to initiate the reaction; • 6) After the reaction plate was incubated at room temperature for 30 min, the reaction was terminated by adding reaction stopping solution. The reaction plate was incubated at room temperature for another 60 minutes;
(§5) Inhibition rates were calculated with Excel; and IC50 for each compound was calculated with Graphpad prism.

For the next assay, the target named is PDE4D2 (Homo sapiens, UniProt Q08499). The assay can be described thus: PDE4 inhibitory activity assay (FAM-cAMP enzymatic reaction), PDE4D2. The conditions noted are these: for inhibitory activity against PDE4D2 compared with Apremilast and WX011: compared with Apremilast and Example 11 of WO2018036470 (WX011); for IC50: read-out: PDE4 D2 inhibitory activity (IC50 value). The method, then: as §1, §2, §3, §4, §5

The next assay addresses T2, PDE4B1 (Homo sapiens, UniProt Q07343).
T2 construct: purchased BPS 60041
The assay can be described thus: PDE4 inhibitory activity assay (FAM-cAMP enzymatic reaction), PDE4B1. The conditions noted are these: for inhibitory activity against PDE4B1 compared with Apremilast and WX011: compared with Apremilast and Example 11 of WO2018036470 (WX011). As for the experimental part: as §1, §2, §3, §4, §5

By IC50 is commonly meant the concentration at which inhibition is half-maximal.

T2 sequence (Q07343 whole entry): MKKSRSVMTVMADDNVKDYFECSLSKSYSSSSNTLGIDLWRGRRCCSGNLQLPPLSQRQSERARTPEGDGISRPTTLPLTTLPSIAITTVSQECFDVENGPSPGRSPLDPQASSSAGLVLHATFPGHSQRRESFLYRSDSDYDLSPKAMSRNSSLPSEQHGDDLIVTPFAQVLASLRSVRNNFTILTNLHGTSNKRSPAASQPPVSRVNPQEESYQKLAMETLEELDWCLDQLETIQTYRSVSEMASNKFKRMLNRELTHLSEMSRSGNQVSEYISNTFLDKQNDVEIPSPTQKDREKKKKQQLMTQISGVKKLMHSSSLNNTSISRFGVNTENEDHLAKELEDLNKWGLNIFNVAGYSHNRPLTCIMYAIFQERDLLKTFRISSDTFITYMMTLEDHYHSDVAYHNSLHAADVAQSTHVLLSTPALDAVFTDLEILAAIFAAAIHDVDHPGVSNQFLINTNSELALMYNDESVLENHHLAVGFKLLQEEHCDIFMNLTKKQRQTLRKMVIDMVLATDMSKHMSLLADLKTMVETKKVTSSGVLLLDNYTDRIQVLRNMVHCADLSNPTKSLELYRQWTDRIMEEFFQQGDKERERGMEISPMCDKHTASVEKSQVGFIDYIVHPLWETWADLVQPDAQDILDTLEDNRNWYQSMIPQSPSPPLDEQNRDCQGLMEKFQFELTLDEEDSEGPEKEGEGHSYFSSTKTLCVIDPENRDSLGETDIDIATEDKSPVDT
T1 sequence (P27815 1-647 isoform P27815-4): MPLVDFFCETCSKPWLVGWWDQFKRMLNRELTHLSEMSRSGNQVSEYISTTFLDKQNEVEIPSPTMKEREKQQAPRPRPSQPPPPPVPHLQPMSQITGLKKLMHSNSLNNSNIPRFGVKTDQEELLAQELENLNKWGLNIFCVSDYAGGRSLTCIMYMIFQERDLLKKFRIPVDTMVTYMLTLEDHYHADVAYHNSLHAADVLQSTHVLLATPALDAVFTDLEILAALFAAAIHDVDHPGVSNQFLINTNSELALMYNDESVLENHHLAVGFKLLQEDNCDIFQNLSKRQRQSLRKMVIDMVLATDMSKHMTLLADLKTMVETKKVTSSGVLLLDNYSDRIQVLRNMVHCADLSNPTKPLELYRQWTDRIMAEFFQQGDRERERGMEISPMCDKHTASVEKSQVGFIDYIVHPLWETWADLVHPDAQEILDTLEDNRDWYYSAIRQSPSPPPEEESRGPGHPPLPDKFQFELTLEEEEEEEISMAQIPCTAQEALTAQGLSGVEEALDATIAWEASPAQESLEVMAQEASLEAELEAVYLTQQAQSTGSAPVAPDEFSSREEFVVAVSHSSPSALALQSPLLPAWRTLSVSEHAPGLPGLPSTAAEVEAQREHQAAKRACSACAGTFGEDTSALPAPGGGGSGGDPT
Sequence of PDE4D2 (Q08499 303-809): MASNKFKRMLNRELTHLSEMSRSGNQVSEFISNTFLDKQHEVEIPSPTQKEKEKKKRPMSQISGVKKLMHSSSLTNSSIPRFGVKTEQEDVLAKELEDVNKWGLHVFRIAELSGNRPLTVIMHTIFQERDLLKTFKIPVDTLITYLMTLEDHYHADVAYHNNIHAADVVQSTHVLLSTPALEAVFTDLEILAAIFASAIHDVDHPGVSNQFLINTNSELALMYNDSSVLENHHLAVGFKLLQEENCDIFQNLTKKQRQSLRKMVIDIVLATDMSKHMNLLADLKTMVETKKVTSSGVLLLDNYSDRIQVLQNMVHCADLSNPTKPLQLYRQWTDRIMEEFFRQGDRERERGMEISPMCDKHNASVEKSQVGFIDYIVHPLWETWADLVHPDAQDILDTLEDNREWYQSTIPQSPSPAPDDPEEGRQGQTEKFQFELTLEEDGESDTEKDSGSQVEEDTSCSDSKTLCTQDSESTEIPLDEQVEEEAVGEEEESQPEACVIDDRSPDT

Take `CCOc1nc([C@@H](CS(C)(=O)=O)n2c(=O)[nH]c3c(C)c(-c4ccccc4F)cnc32)ccc1OC` [Ex. 2, (S)-3-(1-(6-ethoxy-5-methoxypyridin-2-yl)-2-(methylsulfonyl)ethyl)-6-(2-fluorophenyl)-7-methyl-1H-imidazo[4,5-b]pyridin-2(3H)-one]: the “inhibitory activity against PDE4A1A compared with Apremilast and WX011” value against PDE4A1A is given as “significantly enhanced inhibitory activity”. Further, on PDE4D2, the “inhibitory activity against PDE4D2 compared with Apremilast and WX011” value is given as “significantly enhanced inhibitory activity”; the IC50 was determined as 3.4 nM.
Take `CCOc1nc([C@H](CS(C)(=O)=O)n2c(=O)[nH]c3c(C)c(-c4ccccc4F)cnc32)ccc1OC` [Ex. 3, (R)-3-(1-(6-ethoxy-5-methoxypyridin-2-yl)-2-(methylsulfonyl)ethyl)-6-(2-fluorophenyl)-7-methyl-1H-imidazo[4,5-b]pyridin-2(3H)-one]: the IC50 at PDE4D2 amounted to 415 nM.
On the same count and under the same terms, next, `CCOc1nc([C@@H](CS(C)(=O)=O)n2c(=O)[nH]c3c(C)c(-c4ccccc4)cnc32)ccc1OC` [Ex. 4, (S)-3-(1-(6-ethoxy-5-methoxypyridin-2-yl)-2-(methylsulfonyl)ethyl)-7-methyl-6-phenyl-1H-imidazo[4,5-b]pyridin-2(3H)-one]: 8.5 nM.
For `CCOc1nc([C@H](CS(C)(=O)=O)n2c(=O)[nH]c3c(C)c(-c4ccccc4)cnc32)ccc1OC` [Ex. 5, (R)-3-(1-(6-ethoxy-5-methoxypyridin-2-yl)-2-(methylsulfonyl)ethyl)-7-methyl-6-phenyl-1H-imidazo[4,5-b]pyridin-2(3H)-one], the “PDE4 B1 inhibitory effect at 20 nM” value on PDE4B1 is given as “−”. Also, the “PDE4 A1 inhibitory effect at 20 nM” value on PDE4A1A is “−”. Besides, at PDE4D2, the “PDE4 D2 inhibitory effect at 20 nM” value was “−”.
For `CCOc1nc([C@@H](CS(C)(=O)=O)n2c(=O)[nH]c3c(C)c(-c4ccc(F)cc4)cnc32)ccc1OC` [Ex. 6, (S)-3-(1-(6-ethoxy-5-methoxypyridin-2-yl)-2-(methylsulfonyl)ethyl)-6-(4-fluorophenyl)-7-methyl-1H-imidazo[4,5-b]pyridin-2(3H)-one], the “PDE4 B1 inhibitory effect at 20 nM” value at PDE4B1 is “+”. The “PDE4 A1 inhibitory effect at 20 nM” value on PDE4A1A is recorded as “+”. For the same compound, the “PDE4 D2 inhibitory effect at 20 nM” value at PDE4D2 is reported as “=”.
On to `CCOc1nc([C@H](CS(C)(=O)=O)n2c(=O)[nH]c3c(C)c(-c4ccc(F)cc4)cnc32)ccc1OC` [Ex. 7, (R)-3-(1-(6-ethoxy-5-methoxypyridin-2-yl)-2-(methylsulfonyl)ethyl)-6-(4-fluorophenyl)-7-methyl-1H-imidazo[4,5-b]pyridin-2(3H)-one], for which the “PDE4 B1 inhibitory effect at 20 nM” value on PDE4B1 is recorded as “−”. In addition, at PDE4A1A, the “PDE4 A1 inhibitory effect at 20 nM” value was “−”. Besides, at PDE4D2, the “PDE4 D2 inhibitory effect at 20 nM” value is on record as “−”.
Consider `CCOc1nc([C@@H](CS(C)(=O)=O)n2c(=O)[nH]c3c(C)c(-c4ccccc4C)cnc32)ccc1OC` [Ex. 8, (S)-3-(1-(6-ethoxy-5-methoxypyridin-2-yl)-2-(methylsulfonyl)ethyl)-7-methyl-6-(o-methylphenyl)-1H-imidazo[4,5-b]pyridin-2(3H)-one], for which, at PDE4B1, the “inhibitory activity against PDE4B1 compared with Apremilast and WX011” value is listed as “significantly enhanced inhibitory activity”. For the same compound, on PDE4A1A, the “inhibitory activity against PDE4A1A compared with Apremilast and WX011” value is recorded as “significantly enhanced inhibitory activity”. Moreover, on PDE4D2, the “inhibitory activity against PDE4D2 compared with Apremilast and WX011” value was “significantly enhanced inhibitory activity”; the IC50 stood at 3.8 nM.
Consider `CCOc1nc([C@H](CS(C)(=O)=O)n2c(=O)[nH]c3c(C)c(-c4ccccc4C)cnc32)ccc1OC` [Ex. 9, (R)-3-(1-(6-ethoxy-5-methoxypyridin-2-yl)-2-(methylsulfonyl)ethyl)-7-methyl-6-(o-methylphenyl)-1H-imidazo[4,5b]pyridin-2(3H)-one], for which, at PDE4D2, the IC50 was 318 nM.
Consider `CCOc1nc([C@@H](CS(C)(=O)=O)n2c(=O)[nH]c3c(C)c(-c4ccccc4CC)cnc32)ccc1OC` [Ex. 10, (S)-3-(1-(6-ethoxy-5-methoxypyridin-2-yl)-2-(methylsulfonyl)ethyl)-6-(2-ethylphenyl)-7-methyl-1H-imidazo[4,5-b]pyridin-2(3H)-one], for which the “inhibitory activity against PDE4B1 compared with Apremilast and WX011” value against PDE4B1 is listed as “significantly enhanced inhibitory activity”. In addition, the “inhibitory activity against PDE4A1A compared with Apremilast and WX011” value against PDE4A1A is listed as “significantly enhanced inhibitory activity”. In addition, at PDE4D2, the “inhibitory activity against PDE4D2 compared with Apremilast and WX011” value is recorded as “significantly enhanced inhibitory activity”; the IC50 came to 2.8 nM.
With `CCOc1nc([C@@H](CS(C)(=O)=O)n2c(=O)[nH]c3c(C)c(-c4ccccc4C(C)C)cnc32)ccc1OC` [Ex. 11, (S)-3-(1-(6-ethoxy-5-methoxypyridin-2-yl)-2-(methylsulfonyl)ethyl)-6-(2-isopropylphenyl)-7-methyl-1H-imidazo[4,5-b]pyridin-2(3H)-one], the “PDE4 B1 inhibitory effect at 20 nM” value at PDE4B1 is “+”. For the same compound, the “PDE4 A1 inhibitory effect at 20 nM” value on PDE4A1A is recorded as “+”. Also, at PDE4D2, the “PDE4 D2 inhibitory effect at 20 nM” value was “+”.
On to `CCOc1nc([C@@H](CS(C)(=O)=O)n2c(=O)[nH]c3c(C)c(-c4ccccc4OC)cnc32)ccc1OC` [Ex. 12, (S)-3-(1-(6-ethoxy-5-methoxypyridin-2-yl)-2-(methylsulfonyl)ethyl)-6-(2-methoxyphenyl)-7-methyl-1H-imidazo[4,5-b]pyridin-2(3H)-one], for which the “inhibitory activity against PDE4B1 compared with Apremilast and WX011” value on PDE4B1 is “significantly enhanced inhibitory activity”. The “inhibitory activity against PDE4A1A compared with Apremilast and WX011” value at PDE4A1A is listed as “significantly enhanced inhibitory activity”. In addition, on PDE4D2, the “inhibitory activity against PDE4D2 compared with Apremilast and WX011” value was “significantly enhanced inhibitory activity”; the IC50 was 3.2 nM.
On to `CCOc1nc([C@H](CS(C)(=O)=O)n2c(=O)[nH]c3c(C)c(-c4ccccc4OC)cnc32)ccc1OC` [Ex. 13, (R)-3-(1-(6-ethoxy-5-methoxypyridin-2-yl)-2-(methylsulfonyl)ethyl)-6-(2-methoxyphenyl)-7-methyl-1H-imidazo[4,5-b]pyridin-2(3H)-one], for which, on PDE4D2, the IC50 was 396 nM.
As to `CCOc1nc([C@@H](CS(C)(=O)=O)n2c(=O)[nH]c3c(C)c(-c4ccccc4C(F)(F)F)cnc32)ccc1OC` [Ex. 14, (S)-3-(1-(6-ethoxy-5-methoxypyridin-2-yl)-2-(methylsulfonyl)ethyl)-7-methyl-6-(2-(trifluoromethyl)phenyl)-1H-imidazo[4,5-b]pyridin-2(3H)-one], the “PDE4 B1 inhibitory effect at 20 nM” value on PDE4B1 is listed as “+”. The “PDE4 A1 inhibitory effect at 20 nM” value at PDE4A1A was “+”. At PDE4D2, the “PDE4 D2 inhibitory effect at 20 nM” value is on record as “=”.
As for `CCOc1nc([C@@H](CS(C)(=O)=O)n2c(=O)[nH]c3c(C)c(-c4ccccc4C#N)cnc32)ccc1OC` [Ex. 15, (S)-2-(3-(1-(6-ethoxy-5-methoxypyridin-2-yl)-2-(methylsulfonyl)ethyl)-7-methyl-2-oxo-2,3-dihydro-1H-imidazo[4,5-b]pyridin-6-yl)benzonitrile], the “PDE4 B1 inhibitory effect at 20 nM” value at PDE4B1 is listed as “−”. In addition, the “PDE4 A1 inhibitory effect at 20 nM” value at PDE4A1A is listed as “−”. For the same compound, the “PDE4 D2 inhibitory effect at 20 nM” value on PDE4D2 is “−”.
Consider `CCOc1nc([C@H](CS(C)(=O)=O)n2c(=O)[nH]c3c(C)c(-c4ccccc4C#N)cnc32)ccc1OC` [Ex. 16, (R)-2-(3-(1-(6-ethoxy-5-methoxypyridin-2-yl)-2-(methylsulfonyl)ethyl)-7-methyl-2-oxo-2,3-dihydro-1H-imidazo[4,5-b]pyridin-6-yl)benzonitrile], for which, on PDE4B1, the “PDE4 B1 inhibitory effect at 20 nM” value was “−”. The “PDE4 A1 inhibitory effect at 20 nM” value on PDE4A1A is “−”. Also, the “PDE4 D2 inhibitory effect at 20 nM” value on PDE4D2 was “−”.
Take `CCOc1nc([C@@H](CS(C)(=O)=O)n2c(=O)[nH]c3c(C)c(-c4cc(F)ccc4F)cnc32)ccc1OC` [Ex. 27, (S)-6-(2,5-difluorophenyl)-3-(1-(6-ethoxy-5-methoxypyridin-2-yl)-2-(methylsulfonyl)ethyl)-7-methyl-1H-imidazo[4,5-b]pyridin-2(3H)-one]: the half-maximal inhibitory concentration (IC50) on PDE4D2 was 3.7 nM.
On the same count and under the same terms, the value for `CCOc1nc([C@@H](CS(C)(=O)=O)n2c(=O)[nH]c3c(C)c(-c4ccc(C)cc4C)cnc32)ccc1OC` [Ex. 31, (S)-6-(2,4-dimethylphenyl)-3-(1-(6-ethoxy-5-methoxypyridin-2-yl)-2-(methylsulfonyl)ethyl)-7-methyl-1H-imidazo[4,5-b]pyridin-2(3H)-one] was 4.1 nM; that for `CCOc1nc([C@@H](CS(C)(=O)=O)n2c(=O)[nH]c3c(C)c(-c4ccc(F)cc4C)cnc32)ccc1OC` [Ex. 35, (S)-6-(4-fluoro-2-methylphenyl)-3-(1-(6-ethoxy-5-methoxypyridin-2-yl)-2-(methylsulfonyl)ethyl)-7-methyl-1H-imidazo[4,5-b]pyridin-2(3H)-one] was 3.4 nM; that for `CCOc1nc([C@@H](CS(C)(=O)=O)n2c(=O)[nH]c3cc(-c4ccccc4C)cnc32)ccc1OC` [Ex. 79, (S)-3-(1-(6-ethoxy-5-methoxypyridin-2-yl)-2-(methylsulfonyl)ethyl)-6-(o-methylphenyl)-1H-imidazo[4,5-b]pyridin-2(3H)-one] was 4.7 nM.
Still for that read-out and setting: the value for `CCOc1nc([C@@H](CS(C)(=O)=O)n2c(=O)n(C)c3cc(-c4ccccc4C)cnc32)ccc1OC` [Ex. 80, (S)-3-(1-(6-ethoxy-5-methoxypyridin-2-yl)-2-(methylsulfonyl)ethyl)-1-methyl-6-(o-methylphenyl)-1H-imidazo[4,5-b]pyridin-2(3H)-one] was 6.8 nM.
